Patent US20240383875A1, “Benzimidazole Pyridine Derivatives” (Hoffmann-La Roche Inc., priority 2022, published 2024)

What was measured:
Type in all cases: biochemical
SIK3 = SIK3 (Homo sapiens, UniProt Q9Y2K2); test: Enzymatic activity assay SIK3, RapidFire mass spectrometry (phosphorylation of CHK-peptide); conditions: RapidFire MS, inhibition of SIK3; read-out: SIK3 RF IC50
How it was run: (§1)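 Compounds (12-point, 3-fold, generally 30 μM to 170 pM) were pre-incubated 30 min at ambient temperature with SIK1 (5 nM), SIK2 (0.5 nM) or SIK3 (1.5 nM) in HEPES pH 7.0/magnesium acetate buffer. CHK-peptide (10 μM solution) and ATP (100 μM solution) were then added for 45 min before formic acid quench.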

SIK2 = SIK2 (Homo sapiens, UniProt Q9H0K1); test: Enzymatic activity assay SIK2, RapidFire mass spectrometry (phosphorylation of CHK-peptide); conditions: RapidFire MS, inhibition of SIK2; read-out: SIK2 RF IC50
How it was run: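 SIK2 (0.5 nM) in pH 7.0 HEPES buffer with 10 mM Mg acetate phosphorylates CHK-peptide (10 μM solution) with 100 μM ATP solution, 45 min ambient, then formic acid quench.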

SIK1 = SIK1 (Homo sapiens, UniProt P57059); test: Enzymatic activity assay SIK1, RapidFire mass spectrometry (phosphorylation of CHK-peptide); conditions: RapidFire MS, inhibition of SIK1; read-out: SIK1 RF IC50
How it was run: as §1

Sequence of SIK2 (Q9H0K1 whole entry): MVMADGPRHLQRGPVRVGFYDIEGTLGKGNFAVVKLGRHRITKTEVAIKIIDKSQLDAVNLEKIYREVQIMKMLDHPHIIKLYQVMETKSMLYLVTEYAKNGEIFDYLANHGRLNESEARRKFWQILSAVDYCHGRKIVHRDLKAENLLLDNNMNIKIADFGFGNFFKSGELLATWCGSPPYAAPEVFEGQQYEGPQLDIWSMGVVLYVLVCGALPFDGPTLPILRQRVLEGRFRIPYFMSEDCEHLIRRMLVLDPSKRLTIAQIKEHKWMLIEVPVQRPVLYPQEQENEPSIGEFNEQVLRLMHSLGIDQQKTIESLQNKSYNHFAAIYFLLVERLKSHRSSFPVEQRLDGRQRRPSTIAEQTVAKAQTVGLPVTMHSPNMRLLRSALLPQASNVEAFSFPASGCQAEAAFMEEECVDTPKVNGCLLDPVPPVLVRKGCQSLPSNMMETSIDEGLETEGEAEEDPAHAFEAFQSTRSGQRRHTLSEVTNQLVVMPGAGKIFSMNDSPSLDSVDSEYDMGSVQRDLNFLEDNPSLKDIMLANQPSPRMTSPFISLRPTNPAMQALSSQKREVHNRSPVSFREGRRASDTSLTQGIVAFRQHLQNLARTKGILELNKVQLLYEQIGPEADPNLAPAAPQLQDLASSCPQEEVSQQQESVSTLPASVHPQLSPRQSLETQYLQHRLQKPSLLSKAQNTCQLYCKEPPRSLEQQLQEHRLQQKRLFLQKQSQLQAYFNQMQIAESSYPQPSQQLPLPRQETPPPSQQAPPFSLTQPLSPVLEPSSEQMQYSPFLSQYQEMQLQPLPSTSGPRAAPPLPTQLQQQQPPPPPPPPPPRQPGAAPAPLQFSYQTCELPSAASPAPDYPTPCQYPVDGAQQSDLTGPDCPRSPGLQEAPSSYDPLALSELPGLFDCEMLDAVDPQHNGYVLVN
Sequence of SIK3 (Q9Y2K2 whole entry): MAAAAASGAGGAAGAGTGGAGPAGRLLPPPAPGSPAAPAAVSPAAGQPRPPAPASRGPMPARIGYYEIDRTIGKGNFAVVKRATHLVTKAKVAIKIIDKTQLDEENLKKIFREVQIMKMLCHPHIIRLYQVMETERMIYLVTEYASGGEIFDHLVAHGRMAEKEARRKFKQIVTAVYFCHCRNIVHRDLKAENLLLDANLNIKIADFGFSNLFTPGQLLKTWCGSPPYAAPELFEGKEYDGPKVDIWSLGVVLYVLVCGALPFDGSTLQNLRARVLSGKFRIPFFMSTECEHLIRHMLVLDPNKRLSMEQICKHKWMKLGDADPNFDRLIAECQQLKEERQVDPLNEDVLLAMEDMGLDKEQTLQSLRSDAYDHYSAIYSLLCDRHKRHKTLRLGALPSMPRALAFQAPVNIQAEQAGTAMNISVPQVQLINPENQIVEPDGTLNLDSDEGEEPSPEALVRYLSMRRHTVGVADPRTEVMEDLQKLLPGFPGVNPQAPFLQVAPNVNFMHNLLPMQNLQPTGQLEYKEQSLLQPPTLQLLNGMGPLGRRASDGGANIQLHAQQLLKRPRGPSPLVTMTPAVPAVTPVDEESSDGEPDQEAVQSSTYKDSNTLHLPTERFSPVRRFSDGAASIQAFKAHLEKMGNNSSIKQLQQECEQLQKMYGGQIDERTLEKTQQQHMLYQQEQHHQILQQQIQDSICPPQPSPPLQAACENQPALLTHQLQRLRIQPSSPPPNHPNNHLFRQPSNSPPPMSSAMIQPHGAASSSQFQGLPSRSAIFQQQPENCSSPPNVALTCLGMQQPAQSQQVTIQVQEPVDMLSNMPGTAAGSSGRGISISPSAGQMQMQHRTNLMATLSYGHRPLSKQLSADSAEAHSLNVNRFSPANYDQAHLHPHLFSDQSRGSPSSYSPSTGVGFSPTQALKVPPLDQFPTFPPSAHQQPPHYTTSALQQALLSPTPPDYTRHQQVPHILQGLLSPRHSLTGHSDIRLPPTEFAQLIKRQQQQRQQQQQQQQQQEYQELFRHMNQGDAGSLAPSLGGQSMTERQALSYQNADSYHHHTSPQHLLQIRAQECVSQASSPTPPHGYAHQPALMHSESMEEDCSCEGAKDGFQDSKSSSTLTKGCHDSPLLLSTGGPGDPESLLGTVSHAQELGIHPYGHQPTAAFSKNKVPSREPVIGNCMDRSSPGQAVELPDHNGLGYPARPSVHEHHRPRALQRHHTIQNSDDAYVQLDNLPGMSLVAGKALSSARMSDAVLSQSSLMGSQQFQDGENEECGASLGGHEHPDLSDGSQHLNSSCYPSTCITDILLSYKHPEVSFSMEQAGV
Sequence of SIK1 (P57059 whole entry): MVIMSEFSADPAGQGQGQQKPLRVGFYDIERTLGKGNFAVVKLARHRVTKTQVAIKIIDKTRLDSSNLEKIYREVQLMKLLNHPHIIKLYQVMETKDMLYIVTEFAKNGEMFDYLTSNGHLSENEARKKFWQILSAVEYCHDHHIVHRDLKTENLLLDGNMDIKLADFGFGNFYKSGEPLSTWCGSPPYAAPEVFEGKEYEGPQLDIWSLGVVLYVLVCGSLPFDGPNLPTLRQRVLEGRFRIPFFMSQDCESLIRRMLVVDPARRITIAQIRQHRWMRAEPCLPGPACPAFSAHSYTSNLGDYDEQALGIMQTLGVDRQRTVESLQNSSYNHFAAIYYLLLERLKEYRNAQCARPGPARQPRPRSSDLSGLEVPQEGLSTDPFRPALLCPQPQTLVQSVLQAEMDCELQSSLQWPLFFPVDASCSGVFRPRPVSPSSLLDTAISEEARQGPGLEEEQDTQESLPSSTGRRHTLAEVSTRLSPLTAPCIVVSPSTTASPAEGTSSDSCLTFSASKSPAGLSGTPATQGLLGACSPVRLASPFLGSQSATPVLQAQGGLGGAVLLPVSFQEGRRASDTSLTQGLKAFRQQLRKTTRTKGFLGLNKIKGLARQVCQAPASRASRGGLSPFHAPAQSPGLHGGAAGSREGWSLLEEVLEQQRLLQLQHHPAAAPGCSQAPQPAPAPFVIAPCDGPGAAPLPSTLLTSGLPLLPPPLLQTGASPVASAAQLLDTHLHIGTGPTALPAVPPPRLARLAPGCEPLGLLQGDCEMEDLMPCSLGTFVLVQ

**Q.** Which IC50 (SIK3) does the source give for `Cc1ccc(Nc2ccc3c(c2)ncn3-c2ccc(C(C)O)c(-c3cnn(CC(F)(F)F)c3C)n2)nn1` (stereo not drawn) [Example 240, 1-[6-[5-[(6-Methylpyridazin-3-yl)amino]benzimidazol-1-yl]-2-[5-methyl-1-(2,2,2-trifluoroethyl)pyrazol-4-yl]-3-pyridyl]ethanol; formic acid] here?
**A.** 0.2 nM

**Q.** What about the IC50 (SIK2) of the same compound?
**A.** 0.3 nM

**Q.** What about the IC50 (SIK1) of the same compound?
**A.** 43 nM

**Q.** How did the IC50 (SIK3) turn out when `Cc1cc(C#N)nn1-c1nc(-n2cnc3ccc(CN4CCCC4=O)cc32)ccc1C(C)O` (stereo not drawn) [Example 212, 1-[3-(1-Hydroxyethyl)-6-[6-[(2-oxopyrrolidin-1-yl)methyl]benzimidazol-1-yl]-2-pyridyl]-5-methyl-pyrazole-3-carbonitrile] was run?
**A.** 1580 nM

**Q.** What about the IC50 (SIK2) of the same compound?
**A.** 292 nM

**Q.** What about the IC50 (SIK1) of the same compound?
**A.** 453 nM

**Q.** For `Cc1ccc(Nc2ccc3c(c2)ncn3-c2ccc(C(C)O)c(N3CC[C@@H](C#N)C3)n2)nn1` (stereo partly drawn) [Example 105, (3R)-1-[3-(1-Hydroxyethyl)-6-[5-[(6-methylpyridazin-3-yl)amino]benzimidazol-1-yl]-2-pyridyl]pyrrolidine-3-carbonitrile], which IC50 (SIK3) is on record?
**A.** 236 nM

**Q.** What about the IC50 (SIK2) of the same compound?
**A.** 783 nM

**Q.** What about the IC50 (SIK1) of the same compound?
**A.** 1340 nM

**Q.** With `Cc1ccc(Nc2ccc3c(c2)ncn3-c2ccc(C(C)O)c(N3CCNC(C(F)(F)F)C3)n2)nn1` (stereo not drawn) [Example 331, 1-[6-[5-[(6-methylpyridazin-3-yl)amino]benzimidazol-1-yl]-2-[3-(trifluoromethyl)piperazin-1-yl]-3-pyridyl]ethanol] as the compound, how does the IC50 (SIK3) read?
**A.** 9.3 nM

**Q.** What about the IC50 (SIK2) of the same compound?
**A.** 71.5 nM

**Q.** What about the IC50 (SIK1) of the same compound?
**A.** 3340 nM

**Q.** How did the IC50 (SIK3) turn out when `Cc1ncc(Nc2cc3ncn(-c4ccc([C@H](C)O)c(-n5nc(C#N)cc5C)n4)c3cc2F)cc1F` [Example 391, 1-[6-[6-fluoro-5-[(5-fluoro-6-methyl-3-pyridyl)amino]benzimidazol-1-yl]-3-[(1S)-1-hydroxyethyl]-2-pyridyl]-5-methyl-pyrazole-3-carbonitrile] was run?
**A.** 2 nM

**Q.** And the IC50 (SIK2)?
**A.** 4.5 nM

**Q.** And the IC50 (SIK1)?
**A.** 23 nM

**Q.** Which results are given for `Cc1cnc(Nc2ccc3c(c2)ncn3-c2ccc(C(C)O)c(-n3nc(C#N)cc3C)n2)nc1` (stereo not drawn) [Example 83, 1-[3-(1-Hydroxyethyl)-6-[5-[(5-methylpyrimidin-2-yl)amino]benzimidazol-1-yl]-2-pyridyl]-5-methyl-pyrazole-3-carbonitrile]?
**A.** IC50 (SIK3): 1.8 nM; IC50 (SIK2): 1.5 nM; IC50 (SIK1): 2 nM

**Q.** With `Cc1ccc(Nc2cc3c(cc2F)ncn3-c2ccc(C(C)O)c(-n3nc(C#N)cc3C)n2)nn1` (stereo not drawn) [Example 94, 1-[6-[5-Fluoro-6-[(6-methylpyridazin-3-yl)amino]benzimidazol-1-yl]-3-(1-hydroxyethyl)-2-pyridyl]-5-methyl-pyrazole-3-carbonitrile] as the compound, how does the IC50 (SIK3) read?
**A.** 54.9 nM

**Q.** What about the IC50 (SIK2) of the same compound?
**A.** 16.6 nM

**Q.** And the IC50 (SIK1)?
**A.** 24 nM

**Q.** For `Cc1ccc(Nc2ccc3c(c2)ncn3-c2ccc(C(C)O)c(-c3cc(OC(F)F)ncc3C)n2)nn1` (stereo not drawn) [Example 167, 1-[2-[2-(Difluoromethoxy)-5-methyl-4-pyridyl]-6-[5-[(6-methylpyridazin-3-yl)amino]benzimidazol-1-yl]-3-pyridyl]ethanol], which IC50 (SIK3) is on record?
**A.** 1.2 nM

**Q.** And the IC50 (SIK2)?
**A.** 0.9 nM

**Q.** And the IC50 (SIK1)?
**A.** 40 nM

**Q.** Which results are given for `Cc1cc(C#N)nn1-c1nc(-n2cnc3ccc(OC4CCN(C5COC5)CC4)cc32)ccc1C(C)O` (stereo not drawn) [Example 114, 1-[3-(1-Hydroxyethyl)-6-[6-[[1-(oxetan-3-yl)-4-piperidyl]oxy]benzimidazol-1-yl]-2-pyridyl]-5-methyl-pyrazole-3-carbonitrile]?
**A.** IC50 (SIK3): 606 nM; IC50 (SIK2): 47 nM; IC50 (SIK1): 49 nM

**Q.** Which results are given for `Cc1cc(C(F)F)nn1-c1nc(-n2cnc3cc(Nc4cccnn4)c(F)cc32)ccc1[C@H](C)O` [Example 307, (1S)-1-[2-[3-(difluoromethyl)-5-methyl-pyrazol-1-yl]-6-[6-fluoro-5-(pyridazin-3-ylamino)benzimidazol-1-yl]-3-pyridyl]ethanol]?
**A.** IC50 (SIK3): 2.8 nM; IC50 (SIK2): 7.8 nM; IC50 (SIK1): 679 nM

**Q.** With `Cc1cc(C#N)nn1-c1nc(-n2cnc3cc(NC(=O)C4(F)CC4)ccc32)ccc1C(C)O` (stereo not drawn) [Example 380, N-[1-[6-(3-cyano-5-methyl-pyrazol-1-yl)-5-(1-hydroxyethyl)-2-pyridyl]benzimidazol-5-yl]-1-fluoro-cyclopropanecarboxamide] as the compound, how does the IC50 (SIK3) read?
**A.** 12.4 nM

**Q.** And the IC50 (SIK2)?
**A.** 16.6 nM

**Q.** What about the IC50 (SIK1) of the same compound?
**A.** 81 nM

**Q.** Which results are given for `Cc1ccc(Nc2ccc3ncn(-c4ccc(C(C)O)c(-n5cc(C#N)c(C)n5)n4)c3c2)nn1` (stereo not drawn) [Example 178, 1-[3-(1-Hydroxyethyl)-6-[6-[(6-methylpyridazin-3-yl)amino]benzimidazol-1-yl]-2-pyridyl]-3-methyl-pyrazole-4-carbonitrile]?
**A.** IC50 (SIK3): 10000 nM; IC50 (SIK2): 6340 nM; IC50 (SIK1): 27000 nM

**Q.** For `Cc1ccc(Nc2cc3ncn(-c4ccc([C@H](C)O)c(-n5nc(C(F)F)cc5C)n4)c3cc2F)nn1` [Example 301, (1S)-1-[2-[3-(difluoromethyl)-5-methyl-pyrazol-1-yl]-6-[6-fluoro-5-[(6-methylpyridazin-3-yl)amino]benzimidazol-1-yl]-3-pyridyl]ethanol], which IC50 (SIK3) is on record?
**A.** 2 nM

**Q.** What about the IC50 (SIK2) of the same compound?
**A.** 3.5 nM

**Q.** And the IC50 (SIK1)?
**A.** 664 nM

**Q.** Which IC50 (SIK3) does the source give for `COc1cc2ncn(-c3ccc([C@H](C)O)c(-c4ccc(F)cc4OC)n3)c2cc1OC` [Example 21, (S)-1-(6-(5,6-Dimethoxy-1H-benzo[d]imidazol-1-yl)-2-(4-fluoro-2-methoxyphenyl)pyridin-3-yl)ethan-1-ol] here?
**A.** 543 nM

**Q.** What about the IC50 (SIK2) of the same compound?
**A.** 135 nM

**Q.** And the IC50 (SIK1)?
**A.** 192 nM

**Q.** With `COC(C)Cn1ncc(-c2nc(-n3cnc4cc(Nc5ccc(C)nn5)ccc43)ccc2C(C)O)c1C` (stereo not drawn) [Example 279, 1-[2-[1-(2-methoxypropyl)-5-methyl-pyrazol-4-yl]-6-[5-[(6-methylpyridazin-3-yl)amino]benzimidazol-1-yl]-3-pyridyl]ethanol] as the compound, how does the IC50 (SIK3) read?
**A.** 2.9 nM

**Q.** What about the IC50 (SIK2) of the same compound?
**A.** 4.7 nM

**Q.** What about the IC50 (SIK1) of the same compound?
**A.** 532 nM

**Q.** `Cc1ccc(Nc2ccc3c(c2)ncn3-c2ccc(C(C)O)c(N3CCC(C(F)F)C3)n2)nn1` (stereo not drawn) [Example 298, 1-[2-[3-(difluoromethyl)pyrrolidin-1-yl]-6-[5-[(6-methylpyridazin-3-yl)amino]benzimidazol-1-yl]-3-pyridyl]ethanol] was tested. Which IC50 (SIK3) did it give?
**A.** 3 nM

**Q.** And the IC50 (SIK2)?
**A.** 27.4 nM

**Q.** What about the IC50 (SIK1) of the same compound?
**A.** 1510 nM

**Q.** Which IC50 (SIK3) does the source give for `Cc1cc(C#N)nn1-c1nc(-n2cnc3cc(Nc4nncc5c4OCCN5C)ccc32)ccc1C(C)O` (stereo not drawn) [Example 310, 1-[3-(1-hydroxyethyl)-6-[5-[(4-methyl-2,3-dihydropyridazino[4,5-b][1,4]oxazin-8-yl)amino]benzimidazol-1-yl]-2-pyridyl]-5-methyl-pyrazole-3-carbonitrile] here?
**A.** 0.5 nM

**Q.** And the IC50 (SIK2)?
**A.** 1.1 nM

**Q.** What about the IC50 (SIK1) of the same compound?
**A.** 93 nM

**Q.** With `COc1cc2ncn(-c3ccc([C@H](C)O)c(-c4ccccc4C(N)=O)n3)c2cc1OC` [Example 35, (S)-2-(6-(5,6-Dimethoxy-1H-benzo[d]imidazol-1-yl)-3-(l-hydroxyethyl)pyridin-2-yl)benzamide] as the compound, how does the IC50 (SIK3) read?
**A.** 7470 nM

**Q.** And the IC50 (SIK2)?
**A.** 6080 nM

**Q.** And the IC50 (SIK1)?
**A.** 13400 nM

**Q.** `COc1cc2ncn(-c3ccc([C@H](C)O)c(-c4ccc(C#N)cc4)n3)c2cc1OC` [Example 39, (S)-4-(6-(5,6-Dimethoxy-1H-benzo[d]imidazol-1-yl)-3-(l-hydroxyethyl)pyridin-2-yl)benzonitrile] was tested. Which IC50 (SIK3) did it give?
**A.** 178 nM

**Q.** And the IC50 (SIK2)?
**A.** 24.9 nM

**Q.** And the IC50 (SIK1)?
**A.** 152 nM
